In US5100907A, “Hydantoin esters” (Lonza, Inc., priority 1990, dated 1992):

What was measured:
[1] = Total available formaldehyde (TF) and free formaldehyde (FF) levels of esters (I); assay type: physicochemical; conditions: for FF (free formaldehyde) / TF (total available formaldehyde): neat ester, Table 3
Excerpt: Thus, whether the formaldehyde content is chemically bonded to the hydantoin moiety or is free formaldehyde (FF) in solution, e.g., in water as formaldehyde or methylene glycol [CH2 (OH)2 ], it remains available for biocidal action. Due to this direct relation, the weight percent TF in a given preparation of the ester (I), e.g. a cosmetic formulation, can be predicted accurately, regardless of the level of dilution.

[2] = HLB determination (weighted average method); assay type: physicochemical
Excerpt: Hydrophilic-Lipophilic Balance or HLB is a means of associating the hydrophilic and lipophilic characteristics between two surfactants. A "weighted average" method was used to determine the HLB of the esters (I), and by comparison of the precursor ester (Ia), in which two emulsifiers of known HLB values along with the test ester were incorporated in a mixture of mineral oil and water. Evaluation and HLB determination of each of a series of prepared emulsion samples were effected by visual inspection.
The HLB of the mixture "m" is calculated from the sum of the HLB contributions of each surfactant, "a", "b", "c", per Equation 2 which describes a system of oil, water, and three surfactants.
Given that [HLB]m, [HLB]a, and [HLB]b, are known, and the ideal amount of "a", "b", and "c" to prepare a perfect emulsion has been determined, then by rearrangement of Eq. 2, the HLB of "c" can be calculated by Equation 3.
To obtain the HLB of the test ester as surfactant "c", a series of formulations was prepared in which the known surfactant sorbitan monostearate (SMS) as "a" and the known surfactant POE 20 sorbitan monostearate (POE 20 SMS) as "b" were varied in amount (wt. %) relative to each other at a constant amount (1 wt. %) of "c", until an optimum emulsion was obtained. Different combinations of "a" and "b" were used to vary the HLB of "c", for emulsifying a 40:56 (wt. %) mixture of paraffin oil and distilled water (totaling 96 wt. %).
To prepare the emulsions, surfactants "a", "b", and "c", and the paraffin oil were combined in a 150 ml beaker and heated slowly with agitation to 70°-80° C. The value of "X" in each formulation was predetermined by rearranging Eq. 3 to solve for X, and then inserting into the equation various [HLB]c values for the test ester (i.e., 2, 3, 4, 5, 6 . . . ). The [HLB]c values chosen reflected a range that would likely contain the actual HLB of the test ester. Hot distilled water (70°-80° C.) was then slowly added with agitation. The total weight of all these reagents was 100 grams. The resulting emulsion was allowed to cool, with continued agitation, until the temperature dropped below 30° C.
A series of emulsions for each test was prepared, one at a time, and then examined as a set. Each sample within the series was evaluated and graded according to the quality of the emulsion by visual examination of droplet size.

[3] = Emulsion stability tests; assay type: physicochemical
Method: Emulsion stability tests were performed on the esters (I), and for comparison on the precursor esters (Ia), to determine the extent to which each stabilized a standardized solution of water and an oil, using a common procedure consisting of homogenizing a mixture containing the test ester (2%), myristyl propionate (7%), and water (91%). While two emulsifiers are normally used to prepare a cosmetic formulation, e.g. one with a high HLB and the other with a low HLB, the test method herein using only one emulsifier, i.e. the test ester, is fully indicative of the emulsifying attributes of these esters.
The tests were performed with emulsions (500 g), prepared by combining the test ester (10.0 g), myristyl propionate (35 g), and distilled water (455 g) in a container and homogenizing the contents for one minute, via a Kika-Werk Ultra-Turrax S D-45 homogenizer. The emulsions were poured into a one pound flint jar, capped, and periodically examined over a 55 day period.

[4] = test system: Staphylococcus species a; assay: Preservative challenge test against Staphylococcus species a; assay type: cell-based; conditions: end of 14 day period
Method: (§1) Microbiological challenge tests were also conducted with the lauric and oleic esters (I), representing molecules having C12 and C18 aliphatic fatty acid chain length moieties, respectively.
(§2) These preservative challenge tests were used to determine the biocidal performance of these two esters (I) in aqueous solution and dispersion formulations inoculated with a given one of two test organisms, previously isolated from a contaminated calcium carbonate (CaCO3) dispersion, i.e. gram-positive bacteria, designated Staphylococcus species a and Staphylococcus species b, as compared to three known biocides or preservatives, designated as DANTOGARD (trademark), Tektamer 38 (1,2-dibromo-2,4-dicyanobutane) and Nuodex PMA-18.
(§3) The solution formulation was represented by the inclusion of the test sample as preservative system in deionized water, and the dispersion formulation was represented by the inclusion of the test sample as preservative system in a CaCO3 aqueous dispersion (identified as Hydrocarb 60), the latter typifying a dispersed pigment medium, e.g. as used in a paint or other industrial dispersion or slurry. The antimicrobial activity of the test samples was evaluated at individually selective concentrations.
(§4) All these liquid samples were stored at room temperature until the start of the tests. The test organisms were maintained or nutrient agar at 4° C. and subcultured in nutrient broth (Difco), and a 24 hour culture incubated at 35° C. was used for the testing over a challenge test time period of 14 days.
(§5) The test formulations were prepared per a standardized procedure, by placing 20 ml aliquots of the stored sample into sterile test tubes, and then adding 0.1 ml of a standardized 10^6 suspension of a 24 hour culture in nutrient broth. Plate counts were taken immediately to determine the initial level of the microbial population, and the containers were incubated at 20°-25° C. Plate counts were retaken at 1, 3, 7 and 14 days, with the final reductions being calculated from the 14 days results.

[5] = test system: Staphylococcus species b; assay: Preservative challenge test against Staphylococcus species b; assay type: cell-based; conditions: end of 14 day period
Method: as §1, §2, §3, §4, §5

[6] = 1% active concentration in water
[7] = calcium carbonate aqueous dispersions

Compound	FF (free formaldehyde) [1] [Wt. %]	TF (total available formaldehyde) [1] [Wt. %]	Average HLB [2]	HLB Range [2]	ability to stabilize emulsions [3]	duration of stabilized emulsions [3]	emulsion quality, decreasing order of rank [3]	effectiveness as preservative ([4]; water)	effectiveness as preservative ([5]; water)	Calculated TF [1, 6] [Wt. %]	Determined FF [1, 6] [Wt. %]	Ratio FF/TF [1, 6]	TF ([1]; at a concentration of 1.0%) [wt. %]	effectiveness as preservative [4, 7]	effectiveness as preservative [5, 7]
CCCCCCCCCCCC(=O)OCCN1C(=O)N(CO)C(=O)C1(C)C [Methylolated Lauric Ester, 2-(3-hydroxymethyl-5,5-dimethyl-1,3-diazacyclopentane-2,4-dion-1-yl)-ethylester of lauric acid]	0.2	8.0	12.8	12-14	the best emulsifiers tested	more than 22 days	cocoate, laurate>oleate,isostearate>stearate>C8/10 ester>acetate	effective as preservatives in water	effective as preservatives in water						
CCCCCCCC/C=C\CCCCCCCC(=O)OCCN1C(=O)N(CO)C(=O)C1(C)C [Methylolated Oleic Ester, 2-(3-hydroxymethyl-5,5-dimethyl-1,3-diazacyclopentane-2,4-dion-1-yl)-ethylester of oleic acid]	0.2	6.5	15.0	14-16			cocoate, laurate>oleate,isostearate>stearate>C8/10 ester>acetate	effective as preservatives in water	effective as preservatives in water	0.065	0.0112	0.172	0.4	effective as a preservative in calcium carbonate aqueous dispersions	effective as a preservative in calcium carbonate aqueous dispersions
